Test results published in US20220331303A1, “USE OF AN OREXIN 2 RECEPTOR AGONIST FOR THE TREATMENT OF EXCESSIVE SLEEPINESS” (Takeda Pharmaceutical Company Limited, priority 2019, published 2022).
Values joined by “and” are separate entries in the source; they are usually repeats but may differ in a detail not shown here. Identical values can stand only once.

Test system: sleep-deprived healthy volunteers
Assay: Maintenance of wakefulness test (MWT) in sleep-deprived healthy volunteers
Type: in vivo, human
Conditions: for Stage N2 Duration (MWT), LS Mean Difference vs placebo / Total Microsleeps (MWT), LS Mean / Total Microsleeps (MWT), LS Mean Difference vs placebo / Duration Total Microsleeps (MWT), LS Mean / Duration Total Microsleeps (MWT), LS Mean Difference vs placebo / Latency to Sleep Onset on MWT, LS Mean / Latency to Sleep Onset on MWT, LS Mean Difference vs placebo / Stage N1 Duration (MWT), LS Mean / Stage N1 Duration (MWT), LS Mean Difference vs placebo / Stage N2 Duration (MWT), LS Mean: Compound A 112 mg (HD)
Description: The primary objective of this study was to determine the effect of Compound A (methyl (2R,3S)-3-((methylsulfonyl)amino)-2-(((cis-4-phenylcyclohexyl)oxy)methyl)piperidine-1-carboxylate), 44 mg (low dose [LD]) and 112 mg (high dose [HD]), after a single IV dose (compared to placebo) on promoting wakefulness as measured by sleep latency on the MWT (performed at approximately 2, 4, 6, and 8 hours post-dosing starting at approximately 1:00 AM and then at approximate times of 3:00, 5:00, and 7:00 AM) in sleep-deprived healthy volunteers.
This was a phase 1b, single-center, randomized, double-blind, double-dummy, placebo- and active-controlled, 4-period Williams design crossover study to evaluate the PK, PD, and safety of Compound A in sleep-deprived healthy volunteers. Compound A was administered as a 9-hour IV infusion.
Healthy adult male subjects aged 18 to 40 years, inclusive, who satisfied the inclusion and exclusion criteria were enrolled in the trial. On Day 1 of treatment period 1, eligible subjects were equally randomized to 4 treatment sequence groups (sequence 1 to 4) which defined the order of administration for Compound A LD, Compound A HD (both delivered as a 9-hour IV infusion), modafinil 300 mg, and placebo.
During the day before dosing on Day 1, participants were administered the KSS at scheduled timepoints. A practice MWT session was performed on Day 1 treatment period 1 (only once during the entire study) to familiarize subjects with the procedures. Study drug was administered in the clinic in the evening on Day 1 of each treatment period. Subjects underwent the MWT and KSS at specified timepoints after the start of the infusion. Subjects were required to stay awake between the MWT tests. Following completion of the IV infusion on Day 2, subjects underwent an additional MWT test. When the final MWT test and cognitive testing were completed, subjects were allowed to sleep (recovery sleep) for approximately 6 hours. PSG recording was collected during this time. Subjects were discharged from the unit after completion on Day 2 with continuing actigraphy upon discharge (to begin on Day −6 before the next treatment period). The interval between each subsequent treatment period was at least 7 days to ensure that the subject's circadian rhythm had returned to a normal cycle. Subject's vital signs, including BP, were monitored during the dosing and testing period. Blood samples for determination of Compound A plasma concentrations were collected at specified timepoints on Days 1 and 2 of each treatment period. Subjects completed the Columbia-Suicide Severity Rating Scale (C-SSRS) during screening, before study drug administration, and before discharge on Day 2 of each treatment period.
Primary endpoint: Latency for each MWT, defined as time to sleep onset.

[1] = average overall during infusion
[2] = Compound A 112 mg, after the end of infusion (1 hour post end of infusion)
[3] = HD: Compound A 112 mg, 2 HOURS POST INFUSION START
[4] = HD: Compound A 112 mg, 4 HOURS POST INFUSION START
[5] = HD: Compound A 112 mg, 6 HOURS POST INFUSION START
[6] = HD: Compound A 112 mg, 8 HOURS POST INFUSION START
[7] = HD: Compound A 112 mg, Average Overall, MWT during infusion
[8] = LD: Compound A 44 mg, 2 HOURS POST INFUSION START
[9] = LD: Compound A 44 mg, 4 HOURS POST INFUSION START
[10] = LD: Compound A 44 mg, 6 HOURS POST INFUSION START
[11] = LD: Compound A 44 mg, 8 HOURS POST INFUSION START
[12] = LD: Compound A 44 mg, Average Overall, MWT during infusion

With `COC(=O)N1CCC[C@H](NS(C)(=O)=O)[C@@H]1CO[C@H]1CC[C@@H](c2ccccc2)CC1` [Compound A, methyl (2R,3S)-3-((methylsulfonyl)amino)-2-(((cis-4-phenylcyclohexyl)oxy)methyl)piperidine-1-carboxylate] the “Stage N2 Duration (MWT), LS Mean Difference vs placebo” value (4 hours post infusion start) was -1.15 min, the “Total Microsleeps (MWT), LS Mean” value (4 hours post infusion start) was 0.00 and the “Total Microsleeps (MWT), LS Mean Difference vs placebo” value (4 hours post infusion start) was −2.35. The “Duration Total Microsleeps (MWT), LS Mean” value (6 hours post infusion start) was 0.43 s, the “Duration Total Microsleeps (MWT), LS Mean Difference vs placebo” value (6 hours post infusion start) was -6.97 s and the “Latency to Sleep Onset on MWT, LS Mean” value (6 hours post infusion start) was 38.36 min. For the same compound, the “Latency to Sleep Onset on MWT, LS Mean Difference vs placebo” value (6 hours post infusion start) was 32.21 min, the “Stage N1 Duration (MWT), LS Mean” value (6 hours post infusion start) was 0.07 min and the “Stage N1 Duration (MWT), LS Mean Difference vs placebo” value (6 hours post infusion start) was -1.08 min. The “Stage N2 Duration (MWT), LS Mean” value (6 hours post infusion start) was 0.06 min, the “Stage N2 Duration (MWT), LS Mean Difference vs placebo” value (6 hours post infusion start) was -0.44 min and the “Total Microsleeps (MWT), LS Mean” value (6 hours post infusion start) was 0.11. For the same compound, the “Total Microsleeps (MWT), LS Mean Difference vs placebo” value (6 hours post infusion start) was −1.14, the “Duration Total Microsleeps (MWT), LS Mean” value (8 hours post infusion start) was 5.21 s and the “Duration Total Microsleeps (MWT), LS Mean Difference vs placebo” value (8 hours post infusion start) was -2.59 s. For the same compound, the “Latency to Sleep Onset on MWT, LS Mean” value (8 hours post infusion start) was 36.86 min, the “Latency to Sleep Onset on MWT, LS Mean Difference vs placebo” value (8 hours post infusion start) was 33.33 min and the “Stage N1 Duration (MWT), LS Mean” value (8 hours post infusion start) was 0.18 min. For the same compound, the “Stage N1 Duration (MWT), LS Mean Difference vs placebo” value (8 hours post infusion start) was -0.97 min, the “Stage N2 Duration (MWT), LS Mean” value (8 hours post infusion start) was 0.28 min and the “Stage N2 Duration (MWT), LS Mean Difference vs placebo” value (8 hours post infusion start) was -0.82 min. The “Total Microsleeps (MWT), LS Mean” value (8 hours post infusion start) was 1.11, the “Total Microsleeps (MWT), LS Mean Difference vs placebo” value (8 hours post infusion start) was −0.19 and the “Duration Total Microsleeps (MWT), LS Mean” value [1] was 1.40 s. The “Duration Total Microsleeps (MWT), LS Mean Difference vs placebo” value [1] was -7.68 s, the “Latency to Sleep Onset on MWT, LS Mean” value [1] was 38.82 min and 38.82 (1.955) min and the “Latency to Sleep Onset on MWT, LS Mean Difference vs placebo” value [1] was 30.21 min and 30.2 min and 30.21 (2.682) min. The “Stage N1 Duration (MWT), LS Mean” value [1] was 0.04 min, the “Stage N1 Duration (MWT), LS Mean Difference vs placebo” value [1] was -1.23 min and the “Stage N2 Duration (MWT), LS Mean” value [1] was 0.09 min. For the same compound, the “Stage N2 Duration (MWT), LS Mean Difference vs placebo” value [1] was -0.81 min, the “Total Microsleeps (MWT), LS Mean” value [1] was 0.31 and the “Latency to Sleep Onset on MWT, LS Mean (SE)” value [2] was 2.36 (2.241). For the same compound, the “Latency to Sleep Onset on MWT, LS Mean Difference vs placebo, Estimate (SE)” value [2] was −2.29 (2.752), the “Total Sleep Time LS Mean” value [3] was 0.02 min and the “Total Sleep Time LS Mean Difference vs Placebo Estimate” value (“Total Sleep Time LS Mean Difference” below) [3] was -2.71 min. For the same compound, the “Total Wake Time LS Mean” value [3] was 39.89 min, the “Total Wake Time LS Mean Difference vs Placebo Estimate” value (“Total Wake Time LS Mean Difference” below) [3] was 22.17 min and the “Total Sleep Time LS Mean” value [4] was -0.01 min. For the same compound, the “Total Sleep Time LS Mean Difference” value [4] was -3.16 min, the “Total Wake Time LS Mean” value [4] was 40.08 min and the “Total Wake Time LS Mean Difference” value [4] was 30.03 min. The “Total Sleep Time LS Mean” value [5] was 0.21 min, the “Total Sleep Time LS Mean Difference” value [5] was -2.01 min and the “Total Wake Time LS Mean” value [5] was 38.86 min. The “Total Wake Time LS Mean Difference” value [5] was 32.44 min, the “Total Sleep Time LS Mean” value [6] was 0.57 min and the “Total Sleep Time LS Mean Difference” value [6] was -2.35 min. The “Total Wake Time LS Mean” value [6] was 37.36 min, the “Total Wake Time LS Mean Difference” value [6] was 33.71 min and the “Total Sleep Time LS Mean” value [7] was 0.20 min. For the same compound, the “Total Sleep Time LS Mean Difference” value [7] was -2.56 min, the “Total Wake Time LS Mean” value [7] was 39.05 min and the “Total Wake Time LS Mean Difference” value [7] was 29.59 min. For the same compound, the “Total Sleep Time LS Mean” value [8] was 0.47 min, the “Total Sleep Time LS Mean Difference” value [8] was -2.26 min and the “Total Wake Time LS Mean” value [8] was 35.73 min. The “Total Wake Time LS Mean Difference” value [8] was 18.00 min, the “Total Sleep Time LS Mean” value [9] was 1.27 min and the “Total Sleep Time LS Mean Difference” value [9] was -1.88 min. The “Total Wake Time LS Mean” value [9] was 32.42 min, the “Total Wake Time LS Mean Difference” value [9] was 22.37 min and the “Total Sleep Time LS Mean” value [10] was 4.69 min. For the same compound, the “Total Sleep Time LS Mean Difference” value [10] was 2.47 min, the “Total Wake Time LS Mean” value [10] was 21.78 min and the “Total Wake Time LS Mean Difference” value [10] was 15.36 min. For the same compound, the “Total Sleep Time LS Mean” value [11] was 5.63 min, the “Total Sleep Time LS Mean Difference” value [11] was 2.71 min and the “Total Wake Time LS Mean” value [11] was 13.37 min. For the same compound, the “Total Wake Time LS Mean Difference” value [11] was 9.72 min, the “Total Sleep Time LS Mean” value [12] was 3.02 min and the “Total Sleep Time LS Mean Difference” value [12] was 0.26 min. The “Total Wake Time LS Mean” value [12] was 25.83 min, the “Total Wake Time LS Mean Difference” value [12] was 16.36 min and the “Compound A plasma concentration at which magnitude of wake-promoting effects appeared to diminish over time” value (sleep latency vs plasma concentration by MWT session (FIG. 8)) was “less than 200 ng/mL”.
